These are literature values, as cited in patent US20240139197A1, “INHIBITION OF KDM5A FOR PROMOTING ANTIGEN PRESENTATION, INCREASING CD8+ T CELL INFILTRATION AND BOOSTING ANTI-TUMOR IMMUNE RESPONSE” (The Wistar Institute of Anatomy and Biology, priority 2022, published 2024).

Each structure is given as a SMILES string. Read-outs that look alike come from different tables or passages of the source.

Data set [1] addresses KDM4C (Homo sapiens (Human), UniProt Q9H3R0). Conditions: biochemical assay with pre-incubation; cited from earlier work.
Data set [2] concerns the target T1, KDM5A (Homo sapiens (Human), UniProt P29375). Conditions: biochemical assay with pre-incubation; cited from earlier work.
In data set [3] the target is KDM5B (Homo sapiens (Human), UniProt Q9UGL1). As to conditions: biochemical assay with pre-incubation; cited from earlier work.
Data set [4] concerns the target T1, KDM5A. Conditions: KDM5A inhibitors disclosed in Miyake et al; cited from earlier work.

Chain of KDM5B (Q9UGL1 whole entry, species assumed): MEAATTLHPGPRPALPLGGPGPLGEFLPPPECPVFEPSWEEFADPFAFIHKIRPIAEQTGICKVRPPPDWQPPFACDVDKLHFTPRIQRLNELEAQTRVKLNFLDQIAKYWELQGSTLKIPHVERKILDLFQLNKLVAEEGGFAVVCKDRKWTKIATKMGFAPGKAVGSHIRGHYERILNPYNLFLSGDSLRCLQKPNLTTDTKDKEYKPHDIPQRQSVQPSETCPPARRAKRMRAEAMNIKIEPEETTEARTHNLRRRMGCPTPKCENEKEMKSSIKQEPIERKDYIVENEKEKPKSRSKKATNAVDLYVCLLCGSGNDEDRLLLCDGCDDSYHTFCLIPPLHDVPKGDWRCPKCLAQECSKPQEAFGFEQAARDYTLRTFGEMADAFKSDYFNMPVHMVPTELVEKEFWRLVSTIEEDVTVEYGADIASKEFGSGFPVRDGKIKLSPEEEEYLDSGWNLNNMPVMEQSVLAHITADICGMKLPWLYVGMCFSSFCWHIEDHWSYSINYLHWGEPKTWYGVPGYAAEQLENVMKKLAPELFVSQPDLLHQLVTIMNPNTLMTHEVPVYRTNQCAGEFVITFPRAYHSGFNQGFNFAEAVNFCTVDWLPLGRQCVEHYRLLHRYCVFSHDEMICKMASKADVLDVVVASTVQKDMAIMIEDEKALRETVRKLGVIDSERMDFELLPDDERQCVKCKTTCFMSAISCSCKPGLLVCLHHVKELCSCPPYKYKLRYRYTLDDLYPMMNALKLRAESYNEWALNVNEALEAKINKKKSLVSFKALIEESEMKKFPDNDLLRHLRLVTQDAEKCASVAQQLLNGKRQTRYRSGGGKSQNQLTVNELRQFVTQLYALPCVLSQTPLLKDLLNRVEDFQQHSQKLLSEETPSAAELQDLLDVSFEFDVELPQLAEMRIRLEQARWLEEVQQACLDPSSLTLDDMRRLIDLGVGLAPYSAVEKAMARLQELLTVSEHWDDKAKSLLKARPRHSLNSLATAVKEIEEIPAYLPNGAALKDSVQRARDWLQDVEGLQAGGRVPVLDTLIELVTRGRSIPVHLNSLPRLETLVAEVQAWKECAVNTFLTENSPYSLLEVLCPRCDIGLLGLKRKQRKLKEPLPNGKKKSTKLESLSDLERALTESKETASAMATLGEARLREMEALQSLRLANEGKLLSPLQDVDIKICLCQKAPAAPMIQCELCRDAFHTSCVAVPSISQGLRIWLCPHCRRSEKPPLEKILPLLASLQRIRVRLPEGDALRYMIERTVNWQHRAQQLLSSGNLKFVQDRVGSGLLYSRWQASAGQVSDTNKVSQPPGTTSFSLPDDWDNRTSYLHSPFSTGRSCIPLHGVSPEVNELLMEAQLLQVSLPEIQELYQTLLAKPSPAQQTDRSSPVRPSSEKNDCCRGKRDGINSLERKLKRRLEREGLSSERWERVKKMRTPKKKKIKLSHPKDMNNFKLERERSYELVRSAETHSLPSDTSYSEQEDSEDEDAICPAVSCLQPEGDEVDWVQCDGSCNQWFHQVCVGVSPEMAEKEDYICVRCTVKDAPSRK
Chain of KDM4C (Q9H3R0 whole entry, species assumed): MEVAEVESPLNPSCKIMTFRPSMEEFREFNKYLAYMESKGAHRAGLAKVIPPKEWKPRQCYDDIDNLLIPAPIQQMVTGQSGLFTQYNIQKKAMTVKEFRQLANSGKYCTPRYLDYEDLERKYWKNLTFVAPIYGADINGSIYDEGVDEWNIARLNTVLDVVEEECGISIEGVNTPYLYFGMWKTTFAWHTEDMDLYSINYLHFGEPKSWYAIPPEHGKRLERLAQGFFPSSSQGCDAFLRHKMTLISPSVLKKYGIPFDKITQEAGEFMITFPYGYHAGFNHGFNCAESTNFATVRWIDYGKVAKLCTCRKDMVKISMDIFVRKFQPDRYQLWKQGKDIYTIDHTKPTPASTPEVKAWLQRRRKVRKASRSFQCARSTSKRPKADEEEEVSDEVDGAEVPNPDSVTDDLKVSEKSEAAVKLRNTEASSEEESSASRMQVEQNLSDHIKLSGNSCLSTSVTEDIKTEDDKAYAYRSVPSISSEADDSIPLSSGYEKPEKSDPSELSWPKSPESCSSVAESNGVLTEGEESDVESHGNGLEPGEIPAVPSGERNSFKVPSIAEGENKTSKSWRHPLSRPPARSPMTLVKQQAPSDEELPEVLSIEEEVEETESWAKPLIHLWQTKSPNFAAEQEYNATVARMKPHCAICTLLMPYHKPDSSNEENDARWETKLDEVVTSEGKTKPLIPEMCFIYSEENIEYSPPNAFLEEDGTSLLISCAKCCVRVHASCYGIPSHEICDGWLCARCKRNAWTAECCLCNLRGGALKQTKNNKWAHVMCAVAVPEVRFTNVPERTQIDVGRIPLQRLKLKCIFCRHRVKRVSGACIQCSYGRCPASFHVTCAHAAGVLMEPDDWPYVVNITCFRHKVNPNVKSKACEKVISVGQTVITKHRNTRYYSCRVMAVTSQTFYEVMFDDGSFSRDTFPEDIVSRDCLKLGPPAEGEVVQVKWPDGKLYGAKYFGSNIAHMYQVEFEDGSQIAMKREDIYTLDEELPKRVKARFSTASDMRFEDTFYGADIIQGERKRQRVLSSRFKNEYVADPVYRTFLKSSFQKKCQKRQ
T1 sequence (P29375 whole entry): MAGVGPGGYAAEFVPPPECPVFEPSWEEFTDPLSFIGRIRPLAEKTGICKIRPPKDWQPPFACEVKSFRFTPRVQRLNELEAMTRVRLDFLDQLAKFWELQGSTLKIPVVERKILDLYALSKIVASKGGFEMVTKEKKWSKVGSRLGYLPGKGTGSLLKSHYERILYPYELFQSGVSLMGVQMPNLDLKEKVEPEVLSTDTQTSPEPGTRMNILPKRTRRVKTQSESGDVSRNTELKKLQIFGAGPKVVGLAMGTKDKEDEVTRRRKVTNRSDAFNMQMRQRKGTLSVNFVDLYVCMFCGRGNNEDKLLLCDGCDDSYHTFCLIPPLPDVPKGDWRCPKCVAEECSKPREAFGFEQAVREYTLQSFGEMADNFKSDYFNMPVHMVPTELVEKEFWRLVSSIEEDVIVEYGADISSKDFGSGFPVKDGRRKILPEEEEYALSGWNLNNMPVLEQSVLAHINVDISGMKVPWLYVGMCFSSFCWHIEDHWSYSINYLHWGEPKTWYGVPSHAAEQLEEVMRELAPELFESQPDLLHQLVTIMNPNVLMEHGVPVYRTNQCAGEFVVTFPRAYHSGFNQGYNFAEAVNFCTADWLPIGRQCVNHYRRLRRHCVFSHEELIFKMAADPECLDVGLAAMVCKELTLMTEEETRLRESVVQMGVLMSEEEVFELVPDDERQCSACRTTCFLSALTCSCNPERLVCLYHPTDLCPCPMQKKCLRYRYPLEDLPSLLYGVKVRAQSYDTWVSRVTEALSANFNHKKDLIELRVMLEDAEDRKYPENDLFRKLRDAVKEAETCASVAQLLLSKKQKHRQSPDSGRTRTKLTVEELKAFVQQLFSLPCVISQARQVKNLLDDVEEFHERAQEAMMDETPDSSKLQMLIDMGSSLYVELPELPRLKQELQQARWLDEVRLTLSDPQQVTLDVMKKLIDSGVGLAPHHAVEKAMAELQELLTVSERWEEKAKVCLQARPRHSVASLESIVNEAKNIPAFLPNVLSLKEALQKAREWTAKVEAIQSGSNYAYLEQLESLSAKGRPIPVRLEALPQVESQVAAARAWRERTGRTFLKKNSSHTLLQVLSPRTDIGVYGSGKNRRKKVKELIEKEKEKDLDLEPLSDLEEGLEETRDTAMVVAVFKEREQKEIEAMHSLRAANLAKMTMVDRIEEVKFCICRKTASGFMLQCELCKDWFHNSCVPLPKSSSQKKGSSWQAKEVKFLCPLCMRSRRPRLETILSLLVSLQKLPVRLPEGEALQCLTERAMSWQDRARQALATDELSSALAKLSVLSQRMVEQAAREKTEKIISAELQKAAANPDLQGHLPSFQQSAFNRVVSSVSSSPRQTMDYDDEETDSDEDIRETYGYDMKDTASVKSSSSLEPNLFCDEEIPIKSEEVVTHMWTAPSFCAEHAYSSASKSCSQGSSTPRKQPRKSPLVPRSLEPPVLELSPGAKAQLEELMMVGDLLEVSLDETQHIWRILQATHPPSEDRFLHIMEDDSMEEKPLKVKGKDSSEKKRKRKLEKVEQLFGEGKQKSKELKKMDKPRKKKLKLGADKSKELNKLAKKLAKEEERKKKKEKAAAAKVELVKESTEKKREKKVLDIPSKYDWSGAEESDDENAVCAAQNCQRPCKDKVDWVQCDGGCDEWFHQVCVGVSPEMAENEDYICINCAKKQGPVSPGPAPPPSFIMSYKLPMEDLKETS

As for `COc1cc(Cl)ccc1COc1ccnn1-c1cc(C(=O)O)ccn1` [Compound 34], the IC50 in data set [1] is 38 nM; in data set [2] it was 12 nM.

Turning to `O=C(O)c1ccnc(-n2nccc2OCc2ccc(Cl)cc2F)c1` [Compound 32], the 50% inhibitory concentration (IC50) was 18 nM in data set [2] and 4 nM in data set [3].

With `CCCCCCN(C)CCc1ccc(-c2[nH]c3c(C#N)cnn3c(=O)c2C(C)C)cc1` [Compound 13], the IC50 in data set [4] was 4.37 ± 0.19 nM.

`O=C(O)c1ccnc(-n2nccc2OCc2ccc(Cl)cc2OCC2CC2)c1` [Compound 36]: in data set [1], the half-maximal inhibitory concentration (IC50) was 280 nM.

Turning to `CCOc1cc(Cl)ccc1COc1ccnn1-c1cc(C(=O)O)ccn1` [Compound 35], the IC50 in data set [1] was 78 nM; in data set [3], 4 nM.

`CCCCCCN(C)Cc1cc(-c2[nH]c3c(C#N)cnn3c(=O)c2C(C)C)cs1` [Compound 12]: in data set [4], the IC50 was 179 ± 12 nM.

`CCCCCCN(C)Cc1cccc(-c2[nH]c3c(C#N)cnn3c(=O)c2C(C)C)c1` [Compound 11]: the half-maximal inhibitory concentration (IC50) in data set [4] is 65.3 ± 8.6 nM.

Turning to `Cc1cc(Cl)ccc1COc1ccnn1-c1cc(C(=O)O)ccn1` [Compound 33], the IC50 in data set [1] was 41 nM; in data set [2], 13 nM; in data set [3], 2 nM.
